Measurements: US11548899B2, “Fused 1,4-oxazepines and related analogs as BET bromodomain inhibitors” (THE REGENTS OF THE UNIVERSITY OF MICHIGAN, priority 2016, dated 2023)
Where “and” joins values, the source holds several entries; their conditions need not be identical. Identical values can stand only once. Like-named read-outs stand apart in the source and are kept apart here.

Molecular target: T1, recombinant BRD4 BD1 (Homo sapiens, UniProt O60885)
T1 construct: recombinant BRD4 BD1 and BRD4 BD2 proteins
Experiment: Competitive fluorescence-polarization (FP) binding assay, BRD4 BD1
Conditions: protein 10 nM, probe 1.5 nM

[1] = FP competitive binding, read-out: IC50 (nM) BRD4 BD1

Row | SMILES | IC50 [1] | IC50 (IC50 (nM) BRD4 BD1, FP competitive binding)
1 | Cc1nnc2n1-c1scc(Cc3ccccc3)c1COC2 [Cpd. No. 30, 3-benzyl-9-methyl-4H,6H-thieno[2,3-e][1,2,4]triazolo[3,4-c][1,4]oxazepine] | 1390 nM | 
2 | Cc1nnc2n1-c1cccc(C3=CCCCc4ccccc43)c1COC2 [Cpd. No. 59, 7-(6,7-dihydro-5H-benzo[7]annulen-9-yl)-1-methyl-4,6-dihydrobenzo[e][1,2,4]triazolo[3,4-c][1,4]oxazepine] | 966 nM | 
3 | Cc1nnc2n1-c1cccc(C3CCCCc4ccccc43)c1COC2 (centres unmarked) [Cpd. No. 60, 1-methyl-7-(6,7,8,9-tetrahydro-5H-benzo[7]annulen-5-yl)-4,6-dihydrobenzo[e][1,2,4]triazolo[3,4-c][1,4]oxazepine] | 1150 nM | 
4 | Cc1nnc2n1-c1ccc(Cl)c(Br)c1COC2 [Cpd. No. 70, 7-bromo-8-chloro-1-methyl-4,6-dihydrobenzo[e][1,2,4]triazolo[3,4-c][1,4]oxazepine] | > 10000 nM | 
5 | Cc1nnc2n1-c1ccc(-c3ccc(N)nc3)c(Cc3ccccc3)c1COC2 [Cpd. No. 72, 5-(7-benzyl-1-methyl-4,6-dihydrobenzo[e][1,2,4]triazolo[3,4-c][1,4]oxazepin-8-yl)pyridin-2-amine] | 2070 nM and 1980 nM | 
6 | Cc1nnc2n1-c1ccc(Cl)c(C3=CCCc4ccccc43)c1COC2 [Cpd. No. 74, 8-chloro-7-(3,4-dihydronaphthalen-1-yl)-1-methyl-4,6-dihydrobenzo[e][1,2,4]triazolo[3,4-c][1,4]oxazepine] |  | 1780 nM
7 | Cc1nnc2n1-c1ccc(-c3cn[nH]c3)c(Cc3ccccc3)c1COC2 [Cpd. No. 75, 7-benzyl-1-methyl-8-(1H-pyrazol-4-yl)-4,6-dihydrobenzo[e][1,2,4]triazolo[3,4-c][1,4]oxazepine] | 923 nM | 
8 | Cc1nnc2n1-c1ccc(-c3cnn(CC(N)=O)c3)c(Cc3ccccc3)c1COC2 [Cpd. No. 76, 2-(4-(7-benzyl-1-methyl-4,6-dihydrobenzo[e][1,2,4]triazolo[3,4-c][1,4]oxazepin-8-yl)-1H-pyrazol-1-yl)acetamide] | 937 nM | 
9 | Cc1nnc2n1-c1ccc(C3=CCOCC3)c(Cc3ccccc3)c1COC2 [Cpd. No. 77, 7-benzyl-8-(3,6-dihydro-2H-pyran-4-yl)-1-methyl-4,6-dihydrobenzo[e][1,2,4]triazolo[3,4-c][1,4]oxazepine] | 13200 nM | 
10 | Cc1nnc2n1-c1ccc(C3=COCC3)c(Cc3ccccc3)c1COC2 [Cpd. No. 78, 7-benzyl-8-(4,5-dihydrofuran-3-yl)-1-methyl-4,6-dihydrobenzo[e][1,2,4]triazolo[3,4-c][1,4]oxazepine] | 1320 nM | 
11 | Cc1nnc2n1-c1ccc(C3CCOCC3)c(Cc3ccccc3)c1COC2 [Cpd. No. 79, 7-benzyl-1-methyl-8-(tetrahydro-2H-pyran-4-yl)-4,6-dihydrobenzo[e][1,2,4]triazolo[3,4-c][1,4]oxazepine] | 18100 nM | 
12 | Cc1nnc2n1-c1ccc(-c3ccoc3)c(Cc3ccccc3)c1COC2 [Cpd. No. 80, 7-benzyl-8-(furan-3-yl)-1-methyl-4,6-dihydrobenzo[e][1,2,4]triazolo[3,4-c][1,4]oxazepine] | 532 nM | 
13 | Cc1nnc2n1-c1ccc(C3CCOC3)c(Cc3ccccc3)c1COC2 (centres unmarked) [Cpd. No. 81, 7-benzyl-1-methyl-8-(tetrahydrofuran-3-yl)-4,6-dihydrobenzo[e][1,2,4]triazolo[3,4-c][1,4]oxazepine] | 5420 nM | 
14 | Cc1nnc2n1-c1ccc(C#C[Si](C)(C)C)c(Cc3ccccc3)c1COC2 [Cpd. No. 82, 7-benzyl-1-methyl-8-((trimethylsilyl)ethynyl)-4,6-dihydrobenzo[e][1,2,4]triazolo[3,4-c][1,4]oxazepine] | 500 nM | 
15 | C#Cc1ccc2c(c1Cc1ccccc1)COCc1nnc(C)n1-2 [Cpd. No. 83, 7-benzyl-8-ethynyl-1-methyl-4,6-dihydrobenzo[e][1,2,4]triazolo[3,4-c][1,4]oxazepine] | 150 nM | 
16 | Cc1nnc2n1-c1sc(CN3CCOCC3)c(Cc3ccccc3)c1COC2 [Cpd. No. 90, 3-benzyl-9-methyl-2-(morpholinomethyl)-4H,6H-thieno[2,3-][1,2,4]triazolo[3,4-c][1,4]oxazepine] | 6510 nM | 

Continued, in another order:

Row | IC50 [1] | SMILES | IC50 (IC50 (nM) BRD4 BD1, FP competitive binding)
17 | 66900 nM | Cc1cc2c(s1)-n1c(C)nnc1COC2 [Cpd. No. 1, 2,9-dimethyl-4H,6H-thieno[2,3-e][1,2,4]triazolo[3,4-c][1,4]oxazepine] | 
18 | 23200 nM | Cc1sc2c(c1Br)COCc1nnc(C)n1-2 [Cpd. No. 2, 3-bromo-2,9-dimethyl-4H,6H-thieno[2,3-e][1,2,4]triazolo[3,4-c][1,4]oxazepine] | 
19 | 13300 nM | Cc1sc2c(c1-c1ccccc1)COCc1nnc(C)n1-2 [Cpd. No. 3, 2,9-dimethyl-3-phenyl-4H,6H-thieno[2,3-e][1,2,4]triazolo[3,4-c][1,4]oxazepine] | 
20 | 244 nM | Cc1sc2c(c1C1=CCc3ccccc31)COCc1nnc(C)n1-2 [Cpd. No. 53, 3-(1H-inden-3-yl)-2,9-dimethyl-4,6-dihydrothieno[2,3-e][1,2,4]triazolo[3,4-c][1,4]oxazepine] | 
21 | 288 nM | Cc1sc2c(c1C1CCc3ccccc31)COCc1nnc(C)n1-2 (centres unmarked) [Cpd. No. 55, 3-(2,3-dihydro-1H-inden-1-yl)-2,9-dimethyl-4,6-dihydrothieno[2,3-e][1,2,4]triazolo[3,4-c][1,4]oxazepine] | 
22 | 134 nM | Cc1sc2c(c1C1=CCCCc3ccccc31)COCc1nnc(C)n1-2 [Cpd. No. 56, 3-(6,7-dihydro-5H-benzo[7]annulen-9-yl)-2,9-dimethyl-4,6-dihydrothieno[2,3-e][1,2,4]triazolo[3,4-c][1,4]oxazepine] | 
23 | 198 nM | Cc1sc2c(c1C1=CCCc3cc(F)ccc31)COCc1nnc(C)n1-2 [Cpd. No. 57, 3-(6-fluoro-3,4-dihydronaphthalen-1-yl)-2,9-dimethyl-4,6-dihydrothieno[2,3-e][1,2,4]triazolo[3,4-c][1,4]oxazepine] | 
24 | 289 nM | Cc1sc2c(c1C1=CCCc3ccc(F)cc31)COCc1nnc(C)n1-2 [Cpd. No. 58, 3-(7-fluoro-3,4-dihydronaphthalen-1-yl)-2,9-dimethyl-4,6-dihydrothieno[2,3-e][1,2,4]triazolo[3,4-c][1,4]oxazepine] | 
25 | 1050 nM | C=C(C)c1sc2c(c1Cc1ccccc1)COCc1nnc(C)n1-2 [Cpd. No. 94, 3-benzyl-9-methyl-2-(prop-1-en-2-yl)-4H,6H-thieno[2,3-e][1,2,4]triazolo[3,4-c][1,4]oxazepine] | 
26 | 1820 nM | Cc1nnc2n1-c1sc(C3=CCOCC3)c(Cc3ccccc3)c1COC2 [Cpd. No. 95, 3-benzyl-2-(3,6-dihydro-2H-pyran-4-yl)-9-methyl-4H,6H-thieno[2,3-e][1,2,4]triazolo[3,4-c][1,4]oxazepine] | 
27 | 6710 nM | Cc1nnc2n1-c1sc(C3CCOCC3)c(Cc3ccccc3)c1COC2 [Cpd. No. 97, 3-benzyl-9-methyl-2-(tetrahydro-2H-pyran-4-yl)-4H,6H-thieno[2,3-e][1,2,4]triazolo[3,4-c][1,4]oxazepine] | 
28 | 313 nM | Cc1sc2c(c1Cc1cc(F)cc(F)c1)COCc1nnc(C)n1-2 [Cpd. No. 104, 3-(3,5-difluorobenzyl)-2,9-dimethyl-4H,6H-thieno[2,3-e][1,2,4]triazolo[3,4-c][1,4]oxazepine] | 
29 | 279 nM | Cc1sc2c(c1Cc1ccc(F)c(F)c1)COCc1nnc(C)n1-2 [Cpd. No. 105, 3-(3,4-difluorobenzyl)-2,9-dimethyl-4H,6H-thieno[2,3-e][1,2,4]triazolo[3,4-c][1,4]oxazepine] | 
